The target in the assay is T1, mouse VISTA (mVISTA) (Mus musculus, UniProt Q9D659).
T1 construct: expressed in transfected cells; host or cells: Human embryonic kidney 293T cells
T1 sequence (Q9D659 33-308): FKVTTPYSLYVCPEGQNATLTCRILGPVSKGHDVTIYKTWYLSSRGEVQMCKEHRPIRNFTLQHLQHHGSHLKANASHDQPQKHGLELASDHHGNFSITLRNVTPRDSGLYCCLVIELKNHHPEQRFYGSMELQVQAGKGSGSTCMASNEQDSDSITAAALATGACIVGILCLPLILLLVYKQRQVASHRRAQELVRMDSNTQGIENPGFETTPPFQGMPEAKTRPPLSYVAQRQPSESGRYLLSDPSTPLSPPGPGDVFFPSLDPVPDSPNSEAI
Kind of assay: Cell-Based Binding High-Content Assay For mVISTA (HC CBA mVISTA). The gist of the method:
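mVISTA-293T, 4,000 cells/well; cpd ± washout step; biotin-peptide 2 nM final, 30 min RT; SA-Alexa 647 30 min; formaldehyde/Hoechst fix; HCS imaging; 4PL IC50.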

Where [1] appears, read: cell-based binding high-content assay, mVISTA, the 16th table, read-out: HC CBA mVISTA IC50.
Where [2] appears, read: 293T cells expressing mouse VISTA, competition with biotinylated peptide (2 nM), read-out: HC CBA mVISTA IC50.
Setting [3] is: cell-based binding high-content assay, mVISTA, the 15th table, read-out: HC CBA mVISTA IC50.

The structures appear in SMILES notation. Read-outs that look alike come from different tables or passages of the source. Starred links: 1 amine or outer side, 2 acyl side, 3 side chain; linkers in the order of their positions; H or OH if unused. Positions of bridges follow the written chain, without caps; N, C: chain ends. Non-standard residues stand in square brackets, D forms with d. Residues, ends and D or L forms follow the SMILES beside them. Phe(4-CONH2) = NC(=O)c1ccc(C[C@H](N)C(=O)O)cc1; Phe(3-Me) = Cc1cccc(C[C@H](N)C(=O)O)c1; γGlu = O=C(O)[C@H](CCC(=O)[*:2])N[*:1]; 2Nal = N[C@@H](Cc1ccc2ccccc2c1)C(=O)O; βAsp = O=C(O)[C@H](CC(=O)[*:2])N[*:1]; Tic = O=C(O)[C@@H]1Cc2ccccc2CN1; Cit = NC(=O)NCCC[C@H](N)C(=O)O; NMeL = CN[C@@H](CC(C)C)C(=O)O; Ahp(2) = CCCCC[C@H](N)C(=O)O; NMeNle = CCCC[C@H](NC)C(=O)O; Tle = CC(C)(C)[C@H](N)C(=O)O; NMeS = CN[C@@H](CO)C(=O)O; NHexGly = CCCCCCNCC(=O)O; NMeA = CN[C@@H](C)C(=O)O; Nle = CCCC[C@H](N)C(=O)O; Aun = NCCCCCCCCCCC(=O)O; AEEA = NCCOCCOCC(=O)O

For orientation: IC50 means the concentration needed to halve the response being measured. For `CCCCCCN1CC(=O)N[C@@H](Cc2ccc(O)cc2)C(=O)N[C@@H](C(C)C)C(=O)NCC(=O)N[C@@H](CCCNC(=N)N)C(=O)N[C@@H](CC(C)C)C(=O)N[C@@H](CCCCC)C(=O)N2CCC[C@H]2C(=O)N[C@@H](C(C)C)C(=O)N[C@@H](CC(=O)O)C(=O)N[C@H](C(=O)N[C@@H](CO)C(N)=O)CSCC(=O)N[C@@H](Cc2ccc3ccccc3c2)C(=O)N[C@@H](Cc2ccc(O)cc2)C(=O)N[C@@H](CC(=O)O)C1=O` [Ex 1314] ({CH2CO}-[2Nal]YD[NHexGly]YVGRL[Ahp(2)]PVDCS-NH2; thioether N-14), under setting [1], the IC50 is 1.4 nM.

`CCCCCCN1CC(=O)N[C@@H](Cc2ccc(O)cc2)C(=O)N[C@@H](CCCC)C(=O)N[C@@H](CC(=O)O)C(=O)N[C@@H](CCCNC(=N)N)C(=O)N[C@@H](CC(C)C)C(=O)N[C@@H](CCCCC)C(=O)N2CCC[C@H]2C(=O)N[C@@H](C(C)C)C(=O)N[C@@H](CC(N)=O)C(=O)N[C@H](C(=O)NCC(=O)O)CSCC(=O)N[C@@H](Cc2ccccc2)C(=O)N[C@@H](Cc2ccc(O)cc2)C(=O)N[C@@H](CC(=O)O)C1=O` [Example 1029] ({CH2CO}-FYD[NHexGly]Y[Nle]DRL[Ahp(2)]PVNCG-OH; thioether N-14): the IC50 under setting [2] amounted to 1.1 nM.

With `CCCCCCN1CC(=O)N[C@@H](Cc2ccc(O)cc2)C(=O)N[C@@H](CCCC)C(=O)N[C@@H](CC(N)=O)C(=O)N[C@@H](CCCNC(=N)N)C(=O)N[C@@H](CC(C)C)C(=O)N[C@@H](CCCCC)C(=O)N2CCC[C@H]2C(=O)N[C@@H](C(C)C)C(=O)N[C@@H](CC(=O)O)C(=O)N[C@H](C(=O)NCCOCCOCC(=O)N[C@@H](CCC(=O)NCCOCCOCC(=O)NCCCCCCCCCCC(=O)O)C(=O)O)CSCC(=O)N[C@@H](Cc2cccc(C)c2)C(=O)N[C@@H](Cc2c[nH]c3ccccc23)C(=O)N[C@@H](CC(=O)O)C1=O` [compound 2222] ({CH2CO}-[Phe(3-Me)]WD[NHexGly]Y[Nle]NRL[Ahp(2)]PVDC[AEEA][γGlu][AEEA][Aun]-OH; thioether N-14), the IC50 (read-out: HC CBA mVISTA IC50) amounted to 28.7 nM.

On to `CCCCCCN1CC(=O)N[C@@H](Cc2ccc(O)cc2)C(=O)N[C@@H](CCCC)C(=O)NCC(=O)N[C@@H](CCCNC(=N)N)C(=O)N[C@@H](CC(C)C)C(=O)N[C@@H](CCCCC)C(=O)N2CCC[C@H]2C(=O)N[C@@H](C(C)C)C(=O)N[C@@H](CO)C(=O)N[C@H](C(=O)NCC(N)=O)CSCC(=O)N[C@@H](Cc2ccc3ccccc3c2)C(=O)N[C@@H](Cc2ccc(O)cc2)C(=O)N[C@@H](CC(=O)O)C1=O` [Ex 1276] ({CH2CO}-[2Nal]YD[NHexGly]Y[Nle]GRL[Ahp(2)]PVSCG-NH2; thioether N-14), for which the IC50 under setting [1] turned out to be 40.6 nM.

Consider `CCCCCCN1CC(=O)N[C@@H](Cc2ccc(O)cc2)C(=O)N[C@@H](CCCC)C(=O)N[C@@H](CC(=O)O)C(=O)N[C@@H](CCCNC(=N)N)C(=O)N[C@@H](CC(C)C)C(=O)N[C@@H](CCCCC)C(=O)N2CCC[C@H]2C(=O)N[C@@H](C(C)C)C(=O)N[C@@H](CC(=O)O)C(=O)N[C@H](C(=O)N[C@@H](CO)C(N)=O)CSCC(=O)N[C@@H](Cc2ccc3ccccc3c2)C(=O)N[C@@H](Cc2c[nH]c3ccccc23)C(=O)N[C@@H](CC(=O)O)C1=O` [compound 1235] ({CH2CO}-[2Nal]WD[NHexGly]Y[Nle]DRL[Ahp(2)]PVDCS-NH2; thioether N-14), for which, under setting [3], the IC50 was found to be 13.4 nM.

Regarding `CCCCCCN1CC(=O)N[C@@H](Cc2ccc(O)cc2)C(=O)N[C@@H](CC(C)C)C(=O)NCC(=O)N[C@@H](CCCNC(=N)N)C(=O)N2Cc3ccccc3C[C@H]2C(=O)N[C@@H](CCCCC)C(=O)N2CCC[C@H]2C(=O)N[C@@H](C(C)C)C(=O)N[C@@H](CO)C(=O)N[C@H](C(=O)NCC(N)=O)CSCC(=O)N[C@@H](Cc2ccccc2)C(=O)N[C@@H](Cc2ccc(O)cc2)C(=O)N[C@@H](CC(=O)O)C1=O` [compound 1158] ({CH2CO}-FYD[NHexGly]YLGR[Tic][Ahp(2)]PVSCG-NH2; thioether N-14), for the setting “read-out: HC CBA mVISTA IC50”, the IC50 worked out at 11.1 nM.

Take `CCCCCCN1CC(=O)N[C@@H](Cc2ccc(O)cc2)C(=O)N[C@@H](CCCC)C(=O)N[C@@H](CC(N)=O)C(=O)N[C@@H](CCCNC(=N)N)C(=O)N(C)[C@@H](CO)C(=O)N[C@@H](CCCCC)C(=O)N2CCC[C@H]2C(=O)N[C@@H](C(C)(C)C)C(=O)N[C@@H](CO)C(=O)N[C@H](C(=O)NCCOCCOCC(=O)N[C@@H](CCC(=O)NCCOCCOCC(=O)NCCCCCCCCCCC(=O)O)C(=O)O)CSCC(=O)N[C@@H](Cc2ccccc2)C(=O)N[C@@H](Cc2c[nH]c3ccccc23)C(=O)N[C@@H](CC(=O)O)C1=O` [compound 2245] ({CH2CO}-FWD[NHexGly]Y[Nle]NR[NMeS][Ahp(2)]P[Tle]SC[AEEA][γGlu][AEEA][Aun]-OH; thioether N-14): the 50% inhibitory concentration (IC50) (read-out: HC CBA mVISTA IC50) was 27.8 nM.

As for `CCCCCCN1CC(=O)N[C@@H](Cc2ccc(O)cc2)C(=O)N[C@@H](CC(C)C)C(=O)N[C@@H](CC(N)=O)C(=O)N[C@@H](CCCNC(=N)N)C(=O)N(C)[C@@H](CCCC)C(=O)N[C@@H](CCCCC)C(=O)N2CCC[C@H]2C(=O)N[C@@H](C(C)(C)C)C(=O)N[C@@H](CO)C(=O)N[C@H](C(=O)N[C@@H](CC(=O)NCCOCCOCC(=O)N[C@@H](CC(=O)O)C(=O)NCCOCCOCC(=O)NCCCCCCCCCCC(=O)O)C(=O)O)CSCC(=O)N[C@@H](Cc2ccc(C(N)=O)cc2)C(=O)N[C@@H](Cc2c[nH]c3ccccc23)C(=O)N[C@@H](CC(=O)O)C1=O` [compound 2090] ({CH2CO}-[Phe(4-CONH2)]WD[NHexGly]YLNR[NMeNle][Ahp(2)]P[Tle]SC[βAsp][AEEA]D[AEEA][Aun]-OH; thioether N-14), the concentration for half-maximal inhibition (IC50) (cell-based binding high-content assay, mVISTA, read-out: HC CBA miPrISTA IC50) was found to be 34.4 nM.

For `CCCCCCN1CC(=O)N[C@@H](Cc2ccc(O)cc2)C(=O)N[C@@H](CCCC)C(=O)N[C@@H](CC(N)=O)C(=O)N[C@@H](CCCNC(N)=O)C(=O)N[C@@H](CC(C)C)C(=O)N[C@@H](CCCCC)C(=O)N2CCC[C@H]2C(=O)N[C@@H](C(C)C)C(=O)N[C@@H](CC(=O)O)C(=O)N[C@H](C(=O)NCC(=O)O)CSCC(=O)N[C@@H](Cc2ccccc2)C(=O)N[C@@H](Cc2ccc(O)cc2)C(=O)N[C@@H](CC(=O)O)C1=O` [Example 1019] ({CH2CO}-FYD[NHexGly]Y[Nle]N[Cit]L[Ahp(2)]PVDCG-OH; thioether N-14), the IC50 under setting [2] came to 7.9 nM.

For `CCCCCCN1CC(=O)N[C@@H](Cc2ccc(O)cc2)C(=O)N[C@@H](CCCC)C(=O)N[C@@H](CC(N)=O)C(=O)N[C@@H](CCCNC(=N)N)C(=O)N(C)[C@@H](CC(C)C)C(=O)N[C@@H](CCCCC)C(=O)N2CCC[C@H]2C(=O)N[C@@H](C(C)C)C(=O)N[C@@H](CC(=O)O)C(=O)N[C@H](C(=O)N[C@@H](CO)C(=O)O)CSCC(=O)N[C@@H](Cc2ccc3ccccc3c2)C(=O)N[C@@H](Cc2c[nH]c3ccccc23)C(=O)N[C@@H](CC(=O)O)C1=O` [compound 1240] ({CH2CO}-[2Nal]WD[NHexGly]Y[Nle]NR[NMeL][Ahp(2)]PVDCS-OH; thioether N-14), the IC50 under setting [3] stood at 14.4 nM.

`CCCCCCN1CC(=O)N[C@@H](Cc2ccc(O)cc2)C(=O)N[C@@H](CCCC)C(=O)N[C@@H](CC(N)=O)C(=O)N[C@@H](CCCNC(=N)N)C(=O)N(C)[C@@H](C)C(=O)N[C@@H](CCCCC)C(=O)N2CCC[C@H]2C(=O)N[C@@H](C(C)C)C(=O)N[C@@H](CO)C(=O)N[C@H](C(=O)N[C@@H](CC(=O)NCCOCCOCC(=O)NCCCCCCCCCCC(=O)O)C(=O)O)CSCC(=O)N[C@@H](Cc2ccccc2)C(=O)N[C@@H](Cc2c[nH]c3ccccc23)C(=O)N[C@@H](CC(=O)O)C1=O` [Example 2174] ({CH2CO}-FWD[NHexGly]Y[Nle]NR[NMeA][Ahp(2)]PVSC[βAsp][AEEA][Aun]-OH; thioether N-14): under “read-out: HC CBA mVISTA IC50”, the IC50 was determined as 16.6 nM.

In the case of `CCCCCCN1CC(=O)N[C@@H](Cc2ccc(O)cc2)C(=O)N[C@@H](CCCCC)C(=O)N[C@@H](CC(N)=O)C(=O)N[C@@H](CCCNC(=N)N)C(=O)N(C)[C@@H](CCCC)C(=O)N[C@@H](CCCCC)C(=O)N2CCC[C@H]2C(=O)N[C@@H](C(C)C)C(=O)N[C@@H](CC(=O)O)C(=O)N[C@H](C(=O)NCC(=O)O)CSCC(=O)N[C@@H](Cc2cccc(C)c2)C(=O)N[C@@H](Cc2c[nH]c3ccccc23)C(=O)N[C@@H](CC(=O)O)C1=O` [compound 1441] ({CH2CO}-[Phe(3-Me)]WD[NHexGly]Y[Ahp(2)]NR[NMeNle][Ahp(2)]PVDCG-OH; thioether N-14), the IC50 (the 19th table, scaffold drawing 22, read-out: HC CBA mVISTA IC50) was 10.2 nM.

For the compound `CCCCCCN1CC(=O)N[C@@H](Cc2ccc(O)cc2)C(=O)N[C@@H](CC(C)C)C(=O)N[C@@H](CC(N)=O)C(=O)N[C@@H](CCCNC(=N)N)C(=O)N(C)[C@@H](CCCC)C(=O)N[C@@H](CCCCC)C(=O)N2CCC[C@H]2C(=O)N[C@@H](C(C)(C)C)C(=O)N[C@@H](CC(=O)O)C(=O)N[C@H](C(=O)NCCOCCOCC(=O)N[C@@H](CCC(=O)NCCOCCOCC(=O)NCCCCCCCCCCC(=O)O)C(=O)O)CSCC(=O)N[C@@H](Cc2ccccc2)C(=O)N[C@@H](Cc2ccc(O)cc2)C(=O)N[C@@H](CC(=O)O)C1=O` [compound 2261] ({CH2CO}-FYD[NHexGly]YLNR[NMeNle][Ahp(2)]P[Tle]DC[AEEA][γGlu][AEEA][Aun]-OH; thioether N-14), the IC50 (read-out: HC CBA mVISTA IC50) was determined as 23.8 nM.

The record behind these values is patent US20240218022A1, “ANTI-VISTA MACROCYCLIC PEPTIDES AND COMPOSITIONS” (BRISTOL-MYERS SQUIBB COMPANY, priority 2022, published 2024).
